Test results taken from patent US20070270462A1, “8-hydroxyquinoline compounds for treating a polyglutamine (polyQ)-expansion disease” (priority 2005, published 2007).

Assays:
YAC72 mice = assay type: in vivo
From the text: Lower dosages need to be investigated to determine if such doses improve the effect. […] Moreover, since the drug is given as a single daily dose in a water suspension, it is possible that the window of time in which the blood levels are therapeutic may be small, perhaps only a few hours a day. To address these issues, it is proposed to use the R6/2 short term model for a dose-response study and then examine the effects of treatment on the longer term, milder YAC72 model. YAC72 animals carry a portion of a yeast artificial chromosome (YAC) bearing a full-length human htt gene (including the promoter) that is modified with a 72 CAG repeat expansion in exon 1. […]
CQ is delivered blended into food pellets with vitamin B12 supplementation. […] In addition, it is determined what is the average rate of consumption and fluctuations in consumption rate through the course of the day. These parameters are measured periodically in test subjects as well, to allow adjustment of dosing for body weight and food intake. […] Animals are evaluated for a variety of parameters including clasping, rotarod performance, body weight, and survival, and animals are sacrificed at 12 weeks for western and immunohistochemical analysis of huntingtin fragment accumulation and striatal atrophy. […]

Htt exon1-Q103-egfp [1] = assay: Western blotting of cell extracts, Htt exon1-Q103-egfp expression; assay type: cell-based
From the text: PolyQ-htt-GFP fusion constructs, in which the polyglutamine region is encoded by CAA and CAG-containing tandem repeats ([…]) [SEQ ID NO: 1], human polyglutaminen, were obtained from the Hereditary Disease Foundation, Santa Monica, Calif., USA. PC12 and HEK293 cells were maintained in MEM supplemented with 10% v/v FBS, switched to Opti-MEM without serum for 6 hrs during transfection using Lipofectamine 2000 (Invitrogen, Carlsbad, Calif., USA), and returned to serum-containing medium thereafter (up to 48 hours). […] Control cultures received equivalent amounts of DMSO-containing vehicle (<0.1% w/v DMSO, final concentration).
HEK293 or PC12 cells were lysed in PBS buffer containing 1% v/v Triton X-100 and protease inhibitor cocktail (Roche, Indianapolis, Ind.), and passed through a 28 gauge needle to ensure the release of Htt inclusions from the nuclei. Whole mouse brains were homogenized in 50 mM Tris-HCl (pH 7.4), 150 mM NaCl, 1% v/v Triton X-100 and complete protease inhibitor cocktail. Brain homogenate was pre-cleared by centrifuging at 7,500 g for 90 s at 4° C. The supernatant was passed through a 28-gauge needle and boiled in SDS sample buffer for 10 min. Fifty μg of total protein was loaded onto 10% w/v SDS gel containing a 4% w/v stacking gel. […]

Htt exon1-Q103-egfp [2] = assay: Proteasome inhibitor MG132 treatment of CQ-treated Htt exon1-Q103-egfp-expressing HEK293 cells; assay type: cell-based; conditions: pan-proteasome inhibitor MG132
Method: HEK293 or PC12 cells were lysed in PBS buffer containing 1% v/v Triton X-100 and protease inhibitor cocktail (Roche, Indianapolis, Ind.), and passed through a 28 gauge needle to ensure the release of Htt inclusions from the nuclei. Whole mouse brains were homogenized in 50 mM Tris-HCl (pH 7.4), 150 mM NaCl, 1% v/v Triton X-100 and complete protease inhibitor cocktail. Brain homogenate was pre-cleared by centrifuging at 7,500 g for 90 s at 4° C. The supernatant was passed through a 28-gauge needle and boiled in SDS sample buffer for 10 min. Fifty μg of total protein was loaded onto 10% w/v SDS gel containing a 4% w/v stacking gel. Monoclonal antibodies anti-polyglutamine (1:2,000), anti-GAPDH (1:10,000), anti-GFP (1:4,000), and anti-Htt (EM48) in 1:1000 dilution were used for immunoblotting. All western blot experiments were performed at least three times and band intensities were averaged.
In examining potential mechanisms for the effects of CQ on Htt accumulation, we considered the possibilities that CQ might act to inhibit Htt aggregation or directly influence Htt synthesis or degradation. […] Therefore, we focused on the aspects of Htt synthesis and turnover. To determine whether CQ might down-regulate polyQ-Htt expression at the transcriptional level, we examined the amount of Htt^exon1-Q103-egfp mRNA present after 48 hrs of transfection by Northern analysis. […]

## Oc1c(I)cc(Cl)c2cccnc12 [CQ, 5-chloro-7-iodo-8-hydroxy-quinoline]
YAC72 mice; YAC72 mice, chronic CQ with B12 supplementation
  behavioral and pathologic features: significantly mitigate the behavioral and pathologic features
YAC72 mice; mouse, in vivo
  tolerability of chronic CQ administration: well tolerated
Htt exon1-Q103-egfp [1]
  CQ concentration at which dose-dependent inhibition of Htt exon1-Q103-egfp expression begins: 0.5 µM
Htt exon1-Q103-egfp [1]; 2 μM CQ
  inhibition of Htt exon1-Q103-egfp expression: 3.2 fold
Htt exon1-Q103-egfp [2]
  suppression of exon1-Q103-egfp protein production by CQ under MG132 treatment: not affected
